Test results published in ChEMBL document CHEMBL3585266, “New matrix metalloproteinase inhibitors based on γ-fluorinated α-aminocarboxylic and α-aminohydroxamic acids” (Bioorg Med Chem, 2015).

What was measured:
[1] = target: 72 kDa type IV collagenase (Homo sapiens, UniProt P08253)
Description: Inhibition of human active MMP2 using (7-methoxycoumarin-4-yl) acetyl pro-Leu-Gly-Leu-[3-(2,4-dinitrophenyl)-L-2,3-diamino-propionyl]-Ala-Arg-NH2 fluorogenic substrate assessed as fluorescent product release

[2] = target: Matrix metalloproteinase-9 (Homo sapiens, UniProt P14780); test: Inhibition of human active MMP9 using (7-methoxycoumarin-4-yl) acetyl pro-Leu-Gly-Leu-[3-(2,4-dinitrophenyl)-L-2,3-diamino-propionyl]-Ala-Arg-NH2 fluorogenic substrate assessed as fluorescent product release
Sequence of Matrix metalloproteinase-9 (P14780 whole entry): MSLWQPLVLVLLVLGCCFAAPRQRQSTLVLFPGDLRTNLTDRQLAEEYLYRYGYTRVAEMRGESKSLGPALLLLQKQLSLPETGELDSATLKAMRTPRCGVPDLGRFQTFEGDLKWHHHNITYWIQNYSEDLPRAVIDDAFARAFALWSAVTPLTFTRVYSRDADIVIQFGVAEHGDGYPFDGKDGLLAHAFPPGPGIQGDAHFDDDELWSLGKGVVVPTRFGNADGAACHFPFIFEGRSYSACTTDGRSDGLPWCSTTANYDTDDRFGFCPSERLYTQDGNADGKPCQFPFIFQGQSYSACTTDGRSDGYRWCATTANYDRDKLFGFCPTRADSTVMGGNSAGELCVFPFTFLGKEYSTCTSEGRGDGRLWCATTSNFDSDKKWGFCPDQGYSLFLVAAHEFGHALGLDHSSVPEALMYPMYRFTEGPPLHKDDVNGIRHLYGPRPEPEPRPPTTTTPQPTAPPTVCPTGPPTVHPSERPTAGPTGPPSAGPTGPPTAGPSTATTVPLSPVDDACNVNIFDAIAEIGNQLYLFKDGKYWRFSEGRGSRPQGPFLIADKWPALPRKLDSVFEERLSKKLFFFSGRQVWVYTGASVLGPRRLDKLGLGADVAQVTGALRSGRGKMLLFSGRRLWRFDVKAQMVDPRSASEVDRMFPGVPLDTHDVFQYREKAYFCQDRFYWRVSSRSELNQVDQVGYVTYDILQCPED

Sequence of 72 kDa type IV collagenase (P08253 whole entry): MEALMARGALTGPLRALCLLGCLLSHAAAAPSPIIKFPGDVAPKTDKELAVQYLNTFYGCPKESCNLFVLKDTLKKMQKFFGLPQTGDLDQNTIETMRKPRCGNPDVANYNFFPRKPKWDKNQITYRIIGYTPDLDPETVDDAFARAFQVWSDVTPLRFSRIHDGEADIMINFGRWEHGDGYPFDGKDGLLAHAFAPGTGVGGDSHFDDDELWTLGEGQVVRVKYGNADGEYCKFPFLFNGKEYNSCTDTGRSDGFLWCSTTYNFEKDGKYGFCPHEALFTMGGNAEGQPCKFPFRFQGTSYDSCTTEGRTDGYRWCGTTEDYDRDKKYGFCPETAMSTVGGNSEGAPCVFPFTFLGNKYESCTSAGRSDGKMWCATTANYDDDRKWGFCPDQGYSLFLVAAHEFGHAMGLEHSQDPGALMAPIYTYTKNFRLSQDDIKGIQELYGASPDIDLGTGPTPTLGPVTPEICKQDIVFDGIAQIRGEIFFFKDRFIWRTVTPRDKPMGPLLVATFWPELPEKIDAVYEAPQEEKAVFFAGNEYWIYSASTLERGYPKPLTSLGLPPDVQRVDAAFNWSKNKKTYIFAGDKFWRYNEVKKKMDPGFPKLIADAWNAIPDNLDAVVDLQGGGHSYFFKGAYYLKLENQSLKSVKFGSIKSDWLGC

SMILES | IC50 [1] [nM] | IC50 [2] [nM]
CC[C@H](C(=O)O)N(Cc1cccnc1)S(=O)(=O)c1ccc(OC)cc1 | 10300 | 8800
CC[C@@H](C(=O)O)N(Cc1cccnc1)S(=O)(=O)c1ccc(OC)cc1 | > 100000 | > 100000
CC[C@H](C(=O)NO)N(Cc1cccnc1)S(=O)(=O)c1ccc(OC)cc1 | 2 | 4.6
CC[C@@H](C(=O)NO)N(Cc1cccnc1)S(=O)(=O)c1ccc(OC)cc1 | 1400 | 700
COc1ccc(S(=O)(=O)N(Cc2cccnc2)[C@H](CCF)C(=O)O)cc1 | > 100000 | > 100000
COc1ccc(S(=O)(=O)N(Cc2cccnc2)[C@@H](CCF)C(=O)O)cc1 | 34700 | > 100000
COc1ccc(S(=O)(=O)N(Cc2cccnc2)[C@H](CCF)C(=O)NO)cc1 | 6.4 | 12.3
C=CC[C@H](C(=O)O)N(Cc1cccnc1)S(=O)(=O)c1ccc(OC)cc1 | 2100 | 1700
C=CC[C@@H](C(=O)O)N(Cc1cccnc1)S(=O)(=O)c1ccc(OC)cc1 | > 100000 | > 100000
C=CC[C@H](C(=O)NO)N(Cc1cccnc1)S(=O)(=O)c1ccc(OC)cc1 | 3.9 | 0.54
C=CC[C@@H](C(=O)NO)N(Cc1cccnc1)S(=O)(=O)c1ccc(OC)cc1 | 6.3 | 6.4
C=C(F)C[C@H](C(=O)O)N(Cc1cccnc1)S(=O)(=O)c1ccc(OC)cc1 | 35700 | > 100000
C=C(F)C[C@@H](C(=O)O)N(Cc1cccnc1)S(=O)(=O)c1ccc(OC)cc1 | > 100000 | > 100000
C=C(F)C[C@H](C(=O)NO)N(Cc1cccnc1)S(=O)(=O)c1ccc(OC)cc1 | 9.3 | 8.3
C=C(F)C[C@@H](C(=O)NO)N(Cc1cccnc1)S(=O)(=O)c1ccc(OC)cc1 | 7.2 | 4.9
